Measurements reported in patent publication US7326786B2, “Thiazolinone unsubstituted quinolines” (Hoffmann-La Roche Inc., priority 2004, dated 2008).

Each compound was assayed against T1, recombinant human CDK1/Cyclin B complex (Homo sapiens, UniProt P06493) (assay: CDK1/Cyclin B kinase assay (FlashPlate or HTRF)). Conditions: Rb protein substrate, Ki=IC50/(1+[S]/Km).
T1 construct: made in house; host or cells: High Five insect cells (baculovirus) for CDK1/GST-cyclin B; E. coli M15 for the Rb substrate
Format: biochemical
Method: To determine inhibition of CDK1 activity, either FlashPlate™ (NEN™-Life Science Products) assay or HTRF Homogeneous Time Resolved Fluorescence assay was performed. Both types of kinase assays were carried out using recombinant human CDK1/Cyclin B complex. GST-cyclinB (GST-cycB) and CDK1 cDNA clones in baculovirus vectors were provided by Dr. W. Harper at the Baylor College of Medicine, Houston, Tex. Proteins were co-expressed in High Five™ insect cells and the complex was purified on glutathione Sepharose resin (Pharmacia, Piscataway, N.J.) as previously described (Harper, J. W. et al. Cell 1993, 75, 805-816). A 6×-Histidine tagged truncated form of retinoblastoma (Rb) protein (amino acid 386-928) was used as the substrate for the CDK1/Cyclin B assay (the expression plasmid was provided by Dr. Veronica Sullivan, Department of Molecular Virology, Roche Research Centre, Welwyn Garden City, United Kingdom). The Rb protein is a natural substrate for phosphorylation by CDK1 (see Herwig and Strauss Eur. J. Biochem. Vol. 246 (1997) pp. 581-601 and the references cited therein). The expression of the 62Kd protein was under the control of an IPTG inducible promoter in an M15 E. coli strain. Cells were lysed by sonication and purification was carried out by binding lysates at pH 8.0 to a Ni-chelated agarose column pretreated with 1 mM imidazole. The resin was then washed several times with incrementally decreasing pH buffers to pH 6.0, and eluted with 500 mM imidazole. Eluted protein was dialysed against 20 mM HEPES [4-(2-hydroxyethyl)-1-piperazineethanesulfonic acid, sodium salt] pH 7.5, 30% glycerol, 200 mM NaCl, and 1 mM DTT (dithiothreitol). Purified Rb fusion protein stocks were quantitated for protein concentration, aliquoted, and stored at −70° C.
For the FlashPlate kinase asasy, 96-well FlashPlates were coated with Rb protein at 10 μg/ml, using 100 μl per well. Plates were incubated at 4° C. overnight or at room temperature for 3 hours on a shaker. To control for nonspecific phosphorylation, one row of wells was coated with 100 μl/well coating buffer (20 mM HEPES, 0.2 M NaCl). Plates were then washed twice with wash buffer (0.01% Tween 20 in phosphate-buffered saline). Compounds to be tested (“test compounds”) were added to the wells at 5× final concentration. Reactions were initiated by immediate addition of 40 μl reaction mix (25 mM HEPES, 20 mM MgCl2, 0.002% Tween 20, 2 mM DTT, 1 μM ATP, 4 nM 33P-ATP) and a sufficient amount of enzyme to give counts that were at least 10-fold above background. Plates were incubated at room temperature on a shaker for 30 minutes. Plates were washed four times with the wash buffer, sealed, and counted on the TopCount scintillation counter (Packard Instrument Co., Downers Grove, Ill.]. The percent inhibition of Rb phosphorylation, which is a measure of the inhibition of CDK activity, was determined according to the following formula:
[formula] where “test compound” refers to the average counts per minute of the test duplicates, “nonspecific” refers to the average counts per minute when no CDK1/Cyclin B, etc., was added, and “total” refers to the average counts per minute when no compound was added. The IC50 value is the concentration of test compound that reduces by 50% the protein-kinase induced incorporation of the radiolabel under the test conditions described. The value of the inhibitor constant Ki is calculated by the following: Ki=IC50/(1+[S]/Km), where [S] is the ATP concentration and Km is Michaelis constant.
The Homogeneous Time Resolved Fluorescence (HTRF) kinase assay was carried out in 96-well polypropylene plates (BD Biosciences, Bedford, Mass.). Test compounds were first dissolved in DMSO, and then diluted in kinase assay buffer 1 (25 mM HEPES, pH7.0, 8 mM MgCl2, 1.5 mM DTT, and 162 μM ATP) with DMSO concentration at 15%. The CDK1/Cyclin B enzyme was diluted in kinase assay buffer 2 (25 mM HEPES, pH 7.0, 8 mM MgCl2, 0.003% Tween 20, 0.045% BSA, 1.5 mM DTT, and 0.338 μM Rb protein). […]

T1 sequence (P06493 whole entry): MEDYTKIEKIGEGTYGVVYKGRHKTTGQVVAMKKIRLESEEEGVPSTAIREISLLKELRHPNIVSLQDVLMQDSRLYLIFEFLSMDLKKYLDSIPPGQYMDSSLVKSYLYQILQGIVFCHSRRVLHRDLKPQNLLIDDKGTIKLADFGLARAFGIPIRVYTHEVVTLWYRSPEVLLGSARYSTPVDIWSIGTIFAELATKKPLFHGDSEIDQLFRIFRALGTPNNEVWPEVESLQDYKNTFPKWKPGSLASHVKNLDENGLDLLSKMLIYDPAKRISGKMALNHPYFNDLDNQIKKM
T1 sequence (P14635 whole entry partner): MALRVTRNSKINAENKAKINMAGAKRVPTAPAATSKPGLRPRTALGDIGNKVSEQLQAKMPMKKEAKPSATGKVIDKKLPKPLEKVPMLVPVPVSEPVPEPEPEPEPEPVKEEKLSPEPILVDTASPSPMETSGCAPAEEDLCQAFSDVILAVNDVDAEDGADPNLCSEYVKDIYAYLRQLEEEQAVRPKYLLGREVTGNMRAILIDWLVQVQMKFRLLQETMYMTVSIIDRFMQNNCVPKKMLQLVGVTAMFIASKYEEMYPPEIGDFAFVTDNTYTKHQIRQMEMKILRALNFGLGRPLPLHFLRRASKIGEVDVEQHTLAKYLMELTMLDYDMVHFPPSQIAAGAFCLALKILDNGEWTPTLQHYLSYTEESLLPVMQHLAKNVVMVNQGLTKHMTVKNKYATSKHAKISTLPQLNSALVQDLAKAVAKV

Compound	Ki
COc1ccccc1CNC1=NC(=O)/C(=C/c2ccc3ncccc3c2)S1 [Example 10, 2-(2-Methoxy-benzylamino)-5-[1-quinolin-6-yl-meth-(Z)-ylidene]-thiazol-4-one]	148 nM
COc1ccc(OC)c(CCNC2=NC(=O)/C(=C/c3ccc4ncccc4c3)S2)c1 [Example 5, 2-[2-(2,5-Dimethoxy-phenyl)-ethylamino]-5-[1-quinolin-6-yl-meth-(Z)-ylidene]-thiazol-4-one]	838 nM
O=C1N=C(N[C@@H](CO)Cc2ccccc2)S/C1=C\c1ccc2ncccc2c1 [Example 20, 2-((R)-1-Hydroxymethyl-2-phenyl-ethylamino)-5-[1-quinolin-6-yl-meth-(Z)-ylidene]-thiazol-4-one]	604 nM

Second part, the compound after the results:

Ki	Compound
3300 nM	O=C1N=C(NCC(c2ccccc2)N2CCOCC2)S/C1=C\c1ccc2ncccc2c1 (stereo not drawn) [Example 35, 2-(2-Morpholin-4-yl-2-phenyl-ethylamino)-5-[1-quinolin-6-yl-meth-(Z)-ylidene]-thiazol-4-one]
3000 nM	O=C1N=C(N[C@@H]2c3ccccc3C[C@@H]2O)S/C1=C\c1ccc2ncccc2c1 [Example 30, 2-((1R,2S)-2-Hydroxy-indan-1-ylamino)-5-[1-quinolin-6-yl-meth-(Z)-ylidene]-thiazol-4-one]
596 nM	O=C1N=C(NC(CO)c2cccs2)S/C1=C\c1ccc2ncccc2c1 (stereo not drawn) [Example 25, 2-(2-Hydroxy-1-thiophen-2-yl-ethylamino)-5-[1-quinolin-6-yl-meth-(Z)-ylidene]-thiazol-4-one]
